Experimental data from ChEMBL document CHEMBL4808179 (Bioorg Med Chem Lett, 2021).
Converted amounts (≈) assume the structure as drawn.

Columns and labels:
[1] = system: Enterococcus faecium; assay: Antibacterial activity against vancomycin resistant Enterococcus faecium Van A HS-0649 assessed as inhibition of bacterial growth; type: functional
[2] = system: Escherichia coli; assay: Antibacterial activity against Escherichia coli AB1157 assessed as bacterial growth inhibition; type: functional
[3] = system: Enterococcus faecium; assay: Antibacterial activity against vancomycin resistant Enterococcus faecium Van M HS-08267 assessed as inhibition of bacterial growth; type: functional
[4] = system: Staphylococcus aureus; assay: Potency index, ratio of Vancomycin MIC to test compound MIC for antibacterial activity against vancomycin-intermediate Staphylococcus aureus Mu50 assessed as bacterial growth inhibition; type: functional
[5] = system: Staphylococcus aureus; assay: Antibacterial activity against methicillin-resistant Staphylococcus aureus USA300 assessed as bacterial growth inhibition; type: functional
[6] = system: Staphylococcus aureus; assay: Antibacterial activity against vancomycin-intermediate Staphylococcus aureus Mu50 assessed as bacterial growth inhibition; type: functional
[7] = system: Enterococcus faecium; assay: Potency index, ratio of Vancomycin MIC to test compound MIC for antibacterial activity against vancomycin resistant Enterococcus faecium Van A HS-06188 assessed as inhibition of bacterial growth; type: functional
[8] = system: Enterococcus faecium; assay: Potency index, ratio of Vancomycin MIC to test compound MIC for antibacterial activity against vancomycin resistant Enterococcus faecium Van M HS-0847 assessed as inhibition of bacterial growth; type: functional
[9] = system: Acinetobacter baumannii; assay: Antibacterial activity against Acinetobacter baumannii assessed as bacterial growth inhibition; type: functional
[10] = system: Enterococcus faecium; assay: Potency index, ratio of Vancomycin MIC to test compound MIC for antibacterial activity against vancomycin resistant Enterococcus faecium Van B V(R) assessed as inhibition of bacterial growth; type: functional
[11] = system: Staphylococcus aureus; assay: Potency index, ratio of Vancomycin MIC to test compound MIC for antibacterial activity against methicillin-susceptible Staphylococcus aureus Newman assessed as bacterial growth inhibition; type: functional
[12] = system: Enterococcus faecium; assay: Antibacterial activity against vancomycin resistant Enterococcus faecium Van B V(R) assessed as inhibition of bacterial growth; type: functional
[13] = system: Staphylococcus aureus; assay: Antibacterial activity against methicillin-resistant Staphylococcus aureus HS-663 assessed as bacterial growth inhibition; type: functional
[14] = system: Enterococcus faecium; assay: Antibacterial activity against vancomycin resistant Enterococcus faecium Van M HS-0847 assessed as inhibition of bacterial growth; type: functional
[15] = system: Staphylococcus aureus; assay: Antibacterial activity against methicillin-susceptible Staphylococcus aureus Newman assessed as bacterial growth inhibition; type: functional
[16] = system: Enterococcus faecium; assay: Antibacterial activity against vancomycin resistant Enterococcus faecium Van A HS-06188 assessed as inhibition of bacterial growth; type: functional
[17] = system: Enterococcus faecium; assay: Potency index, ratio of Vancomycin MIC to test compound MIC for antibacterial activity against vancomycin resistant Enterococcus faecium Van M HS-08267 assessed as inhibition of bacterial growth; type: functional
[18] = system: HEK-293T; assay: Cytotoxicity against human HEK293T cells assessed as reduction in cell viability upto 25 uM; type: cell-based
[19] = system: L02; assay: Cytotoxicity against human L02 cells assessed as reduction in cell viability < 6.25 uM; type: cell-based

SMILES	MIC [1] [µg/mL]	MIC [2] [µg/mL]	MIC [3] [µg/mL]	Ratio [4]	MIC [5] [µg/mL]	MIC [6] [µg/mL]	Ratio [7]	Ratio [8]	MIC [9] [µg/mL]	Ratio [10]	Ratio [11]	MIC [12] [µg/mL]	MIC [13] [µg/mL]	MIC [14] [µg/mL]	MIC [15] [µg/mL]	MIC [16] [µg/mL]	Ratio [17]	Activity [18]	Activity [19]
CN[C@H](CC(C)C)C(=O)N[C@H]1C(=O)N[C@@H](CC(N)=O)C(=O)N[C@H]2C(=O)N[C@H]3C(=O)N[C@H](C(=O)N[C@H](C(=O)NNCc4ccc(-c5ccccc5)cc4)c4cc(O)cc(O)c4-c4cc3ccc4O)[C@H](O)c3ccc(c(Cl)c3)Oc3cc2cc(c3O[C@@H]2O[C@H](CO)[C@@H](O)[C@H](O)[C@H]2O[C@H]2C[C@](C)(N)[C@H](O)[C@H](C)O2)Oc2ccc(cc2Cl)[C@H]1O	8 (≈ 4.91 µM)	64 (≈ 39.3 µM)	4 (≈ 2.45 µM)	2	0.5 (≈ 0.307 µM)	1 (≈ 0.614 µM)	8	8	64 (≈ 39.3 µM)	8	32	4 (≈ 2.45 µM)	< 0.0625	8 (≈ 4.91 µM)	≤ 0.0625	8 (≈ 4.91 µM)	8		
CN[C@H](CC(C)C)C(=O)N[C@H]1C(=O)N[C@@H](CC(N)=O)C(=O)N[C@H]2C(=O)N[C@H]3C(=O)N[C@H](C(=O)N[C@H](C(=O)N/N=C/c4ccc(-c5ccccc5)cc4)c4cc(O)cc(O)c4-c4cc3ccc4O)[C@H](O)c3ccc(c(Cl)c3)Oc3cc2cc(c3O[C@@H]2O[C@H](CO)[C@@H](O)[C@H](O)[C@H]2O[C@H]2C[C@](C)(N)[C@H](O)[C@H](C)O2)Oc2ccc(cc2Cl)[C@H]1O	4 (≈ 2.46 µM)	128 (≈ 78.6 µM)	2 (≈ 1.23 µM)	2	0.25 (≈ 0.154 µM)	2 (≈ 1.23 µM)	8	8	> 128	8	32	2 (≈ 1.23 µM)	0.0625 (≈ 0.0384 µM)	4 (≈ 2.46 µM)	≤ 0.0625	4 (≈ 2.46 µM)	8		
CN[C@H](CC(C)C)C(=O)N[C@H]1C(=O)N[C@@H](CC(N)=O)C(=O)N[C@H]2C(=O)N[C@H]3C(=O)N[C@H](C(=O)N[C@H](C(=O)NNCc4ccc(-c5ccc(Cl)cc5)cc4)c4cc(O)cc(O)c4-c4cc3ccc4O)[C@H](O)c3ccc(c(Cl)c3)Oc3cc2cc(c3O[C@@H]2O[C@H](CO)[C@@H](O)[C@H](O)[C@H]2O[C@H]2C[C@](C)(N)[C@H](O)[C@H](C)O2)Oc2ccc(cc2Cl)[C@H]1O	16 (≈ 9.62 µM)	128 (≈ 76.9 µM)	4 (≈ 2.4 µM)	2	1 (≈ 0.601 µM)	4 (≈ 2.4 µM)	8	8	128 (≈ 76.9 µM)	8	32	4 (≈ 2.4 µM)	0.0625 (≈ 0.0376 µM)	8 (≈ 4.81 µM)	≤ 0.0625	8 (≈ 4.81 µM)	8	Non-Toxic	Toxic
